Test results published in ChEMBL document CHEMBL1201862, “PubChem BioAssay data set” (2004).
Each block holds one molecule with its values, some of them ahead of it. Calls of active or inactive are those of the source.

What was measured:
[1] = biological target: T1, Intestinal-type alkaline phosphatase (Mus musculus, UniProt P24822); test: PubChem AID 488875; format: functional
[2] = biological target: T2, Intestinal-type alkaline phosphatase (Homo sapiens, UniProt P09923); test: human intestinal alkaline phosphatase activators, dose response, biochemical, luminescence, uHTS hits (AID 463120); format: functional
T2 sequence (P09923 whole entry): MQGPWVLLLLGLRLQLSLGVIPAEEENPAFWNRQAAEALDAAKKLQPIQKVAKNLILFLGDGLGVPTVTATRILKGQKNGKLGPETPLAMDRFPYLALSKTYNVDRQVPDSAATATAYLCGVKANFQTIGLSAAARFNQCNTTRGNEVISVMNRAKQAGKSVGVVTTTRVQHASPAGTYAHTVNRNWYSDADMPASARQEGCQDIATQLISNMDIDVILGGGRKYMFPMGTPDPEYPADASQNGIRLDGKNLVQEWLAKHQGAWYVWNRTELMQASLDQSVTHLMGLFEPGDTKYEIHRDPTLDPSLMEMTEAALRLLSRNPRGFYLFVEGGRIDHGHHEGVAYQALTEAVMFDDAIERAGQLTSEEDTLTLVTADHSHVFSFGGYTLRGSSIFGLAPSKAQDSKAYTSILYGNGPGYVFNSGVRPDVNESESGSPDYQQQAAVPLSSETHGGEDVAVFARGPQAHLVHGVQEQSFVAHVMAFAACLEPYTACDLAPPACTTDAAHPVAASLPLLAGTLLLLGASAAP

[3] = biological target: T2, Intestinal-type alkaline phosphatase; test: human IAP activators, dose response, biochemical, luminescent, uHTS hits, set 2 (AID 488817); format: functional;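 also: potency of activators that raise enzyme activity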
[4] = biological target: T3, Alkaline phosphatase, tissue-nonspecific isozyme (Homo sapiens, UniProt P05186); test: TNAP enzyme activators, dose response, selectivity assay for human IAP activator project, biochemical, TNAP isozyme, human IAP uHTS hits (AID 488886); format: functional;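 also: potency of compounds raising TNAP activity as a selectivity check on IAP activators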
T3 sequence (P05186 whole entry): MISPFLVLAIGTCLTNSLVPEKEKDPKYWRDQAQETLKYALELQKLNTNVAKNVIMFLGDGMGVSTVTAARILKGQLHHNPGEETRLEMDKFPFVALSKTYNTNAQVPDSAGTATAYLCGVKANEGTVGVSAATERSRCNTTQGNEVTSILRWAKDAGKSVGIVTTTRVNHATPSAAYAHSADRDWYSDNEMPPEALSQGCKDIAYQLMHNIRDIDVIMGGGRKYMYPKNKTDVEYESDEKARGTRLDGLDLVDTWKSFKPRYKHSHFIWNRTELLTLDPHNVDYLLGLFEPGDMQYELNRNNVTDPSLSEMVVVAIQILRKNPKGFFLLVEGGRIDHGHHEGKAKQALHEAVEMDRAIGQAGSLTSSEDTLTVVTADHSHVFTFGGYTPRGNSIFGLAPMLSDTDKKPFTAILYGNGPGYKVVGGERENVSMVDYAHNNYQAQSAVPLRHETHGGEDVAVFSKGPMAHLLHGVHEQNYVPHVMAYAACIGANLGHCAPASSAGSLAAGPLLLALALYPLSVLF

Leucine aminopeptidase = biological target: T4, Leucine aminopeptidase (Plasmodium falciparum 3D7, UniProt Q8IL11); test: P. falciparum M17LAP inhibitors, primary screen, biochemical, fluorogenic H-Leu-NHMec substrate, 1536-well (AID 1619); format: functional
T4 sequence (Q8IL11 whole entry): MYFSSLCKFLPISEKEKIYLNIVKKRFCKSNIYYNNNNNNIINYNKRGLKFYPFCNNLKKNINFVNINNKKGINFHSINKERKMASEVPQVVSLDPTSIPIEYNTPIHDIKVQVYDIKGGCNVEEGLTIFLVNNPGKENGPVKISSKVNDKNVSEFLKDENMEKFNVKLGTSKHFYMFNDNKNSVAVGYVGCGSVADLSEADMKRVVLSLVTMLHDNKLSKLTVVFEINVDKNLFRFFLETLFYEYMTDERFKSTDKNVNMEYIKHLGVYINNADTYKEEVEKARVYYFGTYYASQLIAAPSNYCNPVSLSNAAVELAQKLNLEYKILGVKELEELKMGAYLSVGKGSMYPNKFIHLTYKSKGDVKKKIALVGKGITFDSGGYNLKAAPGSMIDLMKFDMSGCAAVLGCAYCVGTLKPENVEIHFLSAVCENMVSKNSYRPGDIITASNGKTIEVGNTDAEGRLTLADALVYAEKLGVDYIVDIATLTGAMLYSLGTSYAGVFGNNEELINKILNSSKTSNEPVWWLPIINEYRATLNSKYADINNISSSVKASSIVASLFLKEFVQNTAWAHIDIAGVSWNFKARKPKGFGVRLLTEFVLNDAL

Aspartyl aminopeptidase = biological target: T5, Aspartyl aminopeptidase (Plasmodium falciparum 3D7, UniProt Q8I2J3); test: Counterscreen for inhibitors of M1 and M17 aminopeptidases: QFRET-based biochemical high throughput dose response assay for inhibitors of the Plasmodium falciparum M18 Aspartyl Aminopeptidase (PFM18AAP). [Related PubChem assays: 1619 (Screening assay (M17LAP inhibitors).), 1445 (Screening assay (M1AAP inhibitors).)]
T5 sequence (Q8I2J3 whole entry): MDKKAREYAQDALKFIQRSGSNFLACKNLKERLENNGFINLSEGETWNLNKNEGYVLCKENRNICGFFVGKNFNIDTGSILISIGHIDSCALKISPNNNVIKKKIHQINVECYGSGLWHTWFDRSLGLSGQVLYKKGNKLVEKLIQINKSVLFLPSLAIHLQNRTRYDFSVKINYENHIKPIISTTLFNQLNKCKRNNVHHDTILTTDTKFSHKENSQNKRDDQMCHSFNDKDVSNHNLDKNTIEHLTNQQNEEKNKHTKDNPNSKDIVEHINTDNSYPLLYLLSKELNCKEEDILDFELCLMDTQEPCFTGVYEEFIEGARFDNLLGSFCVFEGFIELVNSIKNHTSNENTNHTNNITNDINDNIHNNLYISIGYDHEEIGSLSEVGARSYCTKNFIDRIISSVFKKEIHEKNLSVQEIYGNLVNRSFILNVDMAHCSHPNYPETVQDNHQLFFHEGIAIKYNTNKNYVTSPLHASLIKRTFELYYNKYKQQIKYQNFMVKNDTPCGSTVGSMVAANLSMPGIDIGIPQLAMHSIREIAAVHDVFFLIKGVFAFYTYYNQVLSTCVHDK

Procathepsin L = Procathepsin L (Homo sapiens, UniProt P07711); test: cathepsin L inhibitors, dose response, counter-screen for M1/M17 aminopeptidase inhibitor project, biochemical, QFRET, 1536-well (AID 2214)
Chain of Procathepsin L (P07711 whole entry): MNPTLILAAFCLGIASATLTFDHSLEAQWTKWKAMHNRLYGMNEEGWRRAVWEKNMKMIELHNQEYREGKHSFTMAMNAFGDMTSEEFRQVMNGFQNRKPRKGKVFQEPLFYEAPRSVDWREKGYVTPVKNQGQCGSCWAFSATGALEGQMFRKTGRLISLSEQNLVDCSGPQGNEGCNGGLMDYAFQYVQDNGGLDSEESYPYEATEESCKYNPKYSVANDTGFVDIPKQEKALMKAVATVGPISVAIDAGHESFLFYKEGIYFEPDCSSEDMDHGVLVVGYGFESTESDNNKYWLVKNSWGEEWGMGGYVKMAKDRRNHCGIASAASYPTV

[5] = biological target: T6, Mannose-6-phosphate isomerase (Homo sapiens, UniProt P34949); test: PMI enzyme inhibitors, confirmation, biochemical, fluorescence intensity (AID 1535)
T6 sequence (P34949 whole entry): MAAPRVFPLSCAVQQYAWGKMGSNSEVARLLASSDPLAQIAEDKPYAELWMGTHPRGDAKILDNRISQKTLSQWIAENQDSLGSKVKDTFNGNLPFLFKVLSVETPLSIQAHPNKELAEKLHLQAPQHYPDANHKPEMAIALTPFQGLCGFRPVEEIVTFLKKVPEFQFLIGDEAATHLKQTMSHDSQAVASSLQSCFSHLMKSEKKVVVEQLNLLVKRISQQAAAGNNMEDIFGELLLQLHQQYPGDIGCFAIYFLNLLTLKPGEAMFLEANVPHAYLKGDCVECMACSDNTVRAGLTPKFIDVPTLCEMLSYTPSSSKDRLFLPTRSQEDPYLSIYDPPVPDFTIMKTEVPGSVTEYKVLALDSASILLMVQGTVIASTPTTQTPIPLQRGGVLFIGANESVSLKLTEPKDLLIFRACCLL

[6] = biological target: DNA dC->dU-editing enzyme APOBEC-3A (Homo sapiens, UniProt P31941); test: APOBEC3A DNA deaminase inhibitors, dose response, biochemical (AID 504722); format: functional
Chain of DNA dC->dU-editing enzyme APOBEC-3A (P31941 whole entry): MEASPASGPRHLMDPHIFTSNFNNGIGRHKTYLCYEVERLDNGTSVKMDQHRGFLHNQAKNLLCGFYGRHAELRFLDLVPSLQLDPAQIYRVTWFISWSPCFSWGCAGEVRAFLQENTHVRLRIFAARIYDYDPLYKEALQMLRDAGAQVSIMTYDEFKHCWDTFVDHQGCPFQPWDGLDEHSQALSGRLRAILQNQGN

Phosphomannomutase 2 = Phosphomannomutase 2 (Homo sapiens, UniProt O15305); test: Counter screen SAR assay for PMM2 inhibitors via a fluorescence intensity assay. [Related pubchem assays (depositor defined):AID1545, AID1574]
Chain of Phosphomannomutase 2 (O15305 whole entry): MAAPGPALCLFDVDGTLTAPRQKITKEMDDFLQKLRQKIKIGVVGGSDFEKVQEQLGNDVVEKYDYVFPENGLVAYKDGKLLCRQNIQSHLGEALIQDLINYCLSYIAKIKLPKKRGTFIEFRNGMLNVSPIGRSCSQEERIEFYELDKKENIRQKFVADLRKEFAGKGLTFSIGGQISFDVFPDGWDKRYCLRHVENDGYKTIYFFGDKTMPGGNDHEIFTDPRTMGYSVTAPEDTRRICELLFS

Escherichia coli = test: microbe, parasite or virus in culture
[7] = biological target: T1, Intestinal-type alkaline phosphatase; test: PubChem AID 488874; format: functional
[8] = biological target: T2, Intestinal-type alkaline phosphatase; test: human IAP inhibitors, dose response, biochemical, luminescent, uHTS hits, set 2 (AID 488793); format: functional
[9] = biological target: T2, Intestinal-type alkaline phosphatase; test: Dose Response confirmation of uHTS hits from a small molecule inhibitors of human intestinal alkaline phosphatase via a luminescent assay. [Related pubchem assays (depositor defined):AID2544, AID2574]; format: functional
[10] = biological target: T3, Alkaline phosphatase, tissue-nonspecific isozyme; test: inhibition of tissue-nonspecific alkaline phosphatase – biochemical, dose response (AID 488882); format: functional
Cytochrome P450 2D6 = Cytochrome P450 2D6 (Homo sapiens, UniProt P10635);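 also: CYP2D6 member of a cytochrome P450 panel assay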
Chain of Cytochrome P450 2D6 (P10635 whole entry): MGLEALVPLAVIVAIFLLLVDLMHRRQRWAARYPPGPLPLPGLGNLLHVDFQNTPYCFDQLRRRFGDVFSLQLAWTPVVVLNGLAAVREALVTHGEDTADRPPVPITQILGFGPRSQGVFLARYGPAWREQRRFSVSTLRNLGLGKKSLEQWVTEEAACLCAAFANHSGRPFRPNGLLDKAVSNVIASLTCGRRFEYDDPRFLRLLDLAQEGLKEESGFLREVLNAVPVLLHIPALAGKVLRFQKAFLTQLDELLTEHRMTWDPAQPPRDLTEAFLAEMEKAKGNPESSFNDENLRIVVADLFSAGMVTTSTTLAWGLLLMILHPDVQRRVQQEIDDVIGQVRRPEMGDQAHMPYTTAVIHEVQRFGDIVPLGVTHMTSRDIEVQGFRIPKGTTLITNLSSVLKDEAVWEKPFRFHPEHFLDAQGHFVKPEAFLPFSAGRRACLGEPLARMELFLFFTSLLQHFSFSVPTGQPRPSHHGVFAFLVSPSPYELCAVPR

Cytochrome P450 3A4 = Cytochrome P450 3A4 (Homo sapiens, UniProt P08684);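 also: CYP3A4 tested as one member of a cytochrome P450 panel screen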
Chain of Cytochrome P450 3A4 (P08684 whole entry): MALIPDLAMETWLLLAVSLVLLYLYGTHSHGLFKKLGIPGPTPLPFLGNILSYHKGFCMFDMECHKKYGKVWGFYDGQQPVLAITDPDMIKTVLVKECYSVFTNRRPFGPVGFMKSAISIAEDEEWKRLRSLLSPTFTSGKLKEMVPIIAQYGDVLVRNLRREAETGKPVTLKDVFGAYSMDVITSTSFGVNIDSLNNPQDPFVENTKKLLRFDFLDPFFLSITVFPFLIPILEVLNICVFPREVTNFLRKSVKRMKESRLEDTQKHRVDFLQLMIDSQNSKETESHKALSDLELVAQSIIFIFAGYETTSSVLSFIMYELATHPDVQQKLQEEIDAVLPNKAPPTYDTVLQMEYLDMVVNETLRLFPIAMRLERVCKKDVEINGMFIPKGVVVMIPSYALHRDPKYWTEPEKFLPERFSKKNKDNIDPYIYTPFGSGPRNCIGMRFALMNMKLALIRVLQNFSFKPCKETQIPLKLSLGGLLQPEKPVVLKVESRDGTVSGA

T1 sequence (P24822 whole entry): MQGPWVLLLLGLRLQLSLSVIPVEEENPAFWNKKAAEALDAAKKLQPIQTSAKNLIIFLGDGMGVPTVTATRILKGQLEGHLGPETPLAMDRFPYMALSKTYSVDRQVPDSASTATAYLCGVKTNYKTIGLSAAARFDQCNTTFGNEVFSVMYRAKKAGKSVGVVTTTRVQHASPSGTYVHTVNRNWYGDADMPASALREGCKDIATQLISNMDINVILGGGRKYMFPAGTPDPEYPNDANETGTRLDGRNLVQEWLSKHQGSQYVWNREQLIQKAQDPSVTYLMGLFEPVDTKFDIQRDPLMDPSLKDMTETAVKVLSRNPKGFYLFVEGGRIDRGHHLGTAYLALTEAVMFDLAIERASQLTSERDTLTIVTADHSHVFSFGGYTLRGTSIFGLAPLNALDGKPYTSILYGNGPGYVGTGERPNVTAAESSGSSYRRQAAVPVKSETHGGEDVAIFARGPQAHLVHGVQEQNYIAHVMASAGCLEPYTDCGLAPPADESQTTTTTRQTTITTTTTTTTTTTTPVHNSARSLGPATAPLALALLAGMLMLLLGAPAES

EC50 [1]: > 100 µM (inactive) | EC50 [2]: 11.8 µM (active) | EC50 [3]: 12.4 µM (active) | EC50 [4]: 11.8 µM (active)
Structure (SMILES): COc1cc(OC)cc(C(=O)NNC(=O)c2nn(C)c(=O)c3ccccc23)c1

Structure (SMILES): Sc1n[nH]c(-c2ccccc2Br)n1
IC50 (Leucine aminopeptidase): 4.67 µM (active) | IC50 (Aspartyl aminopeptidase): 19.3 µM (not active) | IC50 (Procathepsin L): > 59.6 µM (not active) | IC50 [5]: 37.6 µM (active) | IC50 [6]: > 100 µM (inactive) | IC50 (Phosphomannomutase 2): > 100 µM (inactive) | AC50 (Escherichia coli): 30.2 µM (active)

IC50 [7]: > 100 µM (inactive) | IC50 [8]: 23.4 µM (active) | IC50 [9]: 23.1 µM (inactive) | IC50 [10]: 47.9 µM (active)
Structure (SMILES): c1ccc(CSCCc2ccncc2)cc1

AC50 (Cytochrome P450 2D6): 20 µM (inconclusive) | AC50 (Cytochrome P450 3A4): inconclusive
Structure (SMILES): O=C(c1cccc(F)c1)N1CCC2(CC1)CCN(c1ccccn1)CC2
